The record followed here is ChEMBL document CHEMBL1201862, “PubChem BioAssay data set” (2004).

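Tested at 5 concentrations; 48 h exposure; 96-well plates; endpoints linearly interpolated, else capped at highest concentration. Abbreviation: GI50, concentration required for 50% inhibition of growth.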 Calls of active or inactive are those of the source. No stated cut-off is given here; in the data, active = GI50 up to about 1.1 µM and inactive = higher.

Among the test systems are MOLT-4; UACC-62; CCRF-CEM; DU-145; 786-0; MDA-N; NCI-H460; A498; SF-539; NCI/ADR-RES; RXF 393; CAKI-1; COLO 205; K562; EKVX; Malme-3M; SR.
Common to all, as to assay: NCI anticancer screen, dose series, 48 h

As for `O=C(O)C1C(=O)Oc2c(cccc2[N+](=O)[O-])C1O` (stereo unspecified), the GI50 in the test on MOLT-4, in the test on UACC-62, in the test on CCRF-CEM, with DU-145, in the test with 786-0 and in the test on MDA-N was > 100 µM (inactive) throughout. In addition, the GI50 with NCI-H460, with A498, in the test with SF-539, in the test on NCI/ADR-RES, in the test with RXF 393 and with CAKI-1 was > 100 µM (inactive) in each case. For the same compound, the GI50 in the test on COLO 205, in the test on K562, in the test with EKVX, with Malme-3M and in the test on SR was > 100 µM (inactive) throughout.
As for `COc1ccc(/C=C/C(=O)Oc2cc(O)cc(O)c2)cc1`, the GI50 is 11.3 µM (inactive) in the test on MOLT-4; > 100 µM (inactive) in the test with UACC-62; 11.5 µM (inactive) in the test on CCRF-CEM; 56.6 µM (inactive) in the test on DU-145; 56.9 µM (inactive) in the test on 786-0; 58.5 µM (inactive) with MDA-N. The GI50 is > 100 µM (inactive) in the test with NCI-H460; > 100 µM (inactive) in the test with A498; 95.1 µM (inactive) with SF-539; 34.4 µM (inactive) in the test on NCI/ADR-RES; 72.4 µM (inactive) in the test on RXF 393; 17.2 µM (inactive) with CAKI-1. For the same compound, the GI50 was 57.9 µM (inactive) in the test on COLO 205; 22.5 µM (inactive) in the test with K562; 56.2 µM (inactive) with EKVX; 36.6 µM (inactive) with Malme-3M; 25.1 µM (inactive) in the test with SR.
For the compound `Nc1nc(-c2cccs2)cs1`, the GI50 is 83.9 µM (inactive) with UACC-62; 29 µM (inactive) in the test with CCRF-CEM; > 100 µM (inactive) in the test on DU-145; > 100 µM (inactive) in the test on 786-0; 45.7 µM (inactive) in the test with MDA-N; 47.9 µM (inactive) in the test on NCI-H460. Moreover, the GI50 was > 100 µM (inactive) with A498; > 100 µM (inactive) in the test on SF-539; 91 µM (inactive) in the test with NCI/ADR-RES; > 100 µM (inactive) in the test on RXF 393; > 100 µM (inactive) in the test on CAKI-1; 88.1 µM (inactive) in the test on COLO 205. The GI50 in the test with K562 is > 100 µM (inactive); in the test with EKVX, 43.3 µM (inactive); with Malme-3M it was > 100 µM (inactive); in the test on SR it was 69.5 µM (inactive).
Take `Cc1cc2c(SCc3ccccc3Cl)nc(N)nc2nc1C`: the GI50 in the test with UACC-62, in the test with CCRF-CEM, in the test with DU-145, in the test on 786-0, with MDA-N and in the test with NCI-H460 was > 100 µM (inactive) throughout. Besides, the GI50 with A498, with SF-539, in the test with NCI/ADR-RES, in the test on RXF 393, with CAKI-1 and in the test with COLO 205 was > 100 µM (inactive) in each case. Moreover, the GI50 in the test on EKVX, in the test with Malme-3M and in the test on SR was > 100 µM (inactive) in each case.
Consider `N#CC1CNC(N)NC1N` (stereo unspecified), for which the GI50 in the test with UACC-62 is > 100 µM (inactive); in the test on CCRF-CEM, < 0.01 µM (active); in the test with DU-145, > 100 µM (inactive); in the test with 786-0, > 100 µM (inactive); in the test on MDA-N, > 100 µM (inactive); with NCI-H460 it was > 100 µM (inactive). Moreover, the GI50 in the test with A498, with SF-539, in the test on NCI/ADR-RES, in the test with RXF 393, with CAKI-1 and in the test with COLO 205 was > 100 µM (inactive) in each case. The GI50 with K562 was 64.1 µM (inactive); in the test on EKVX, > 100 µM (inactive); in the test on Malme-3M it was > 100 µM (inactive); in the test on SR, 34 µM (inactive).
As to `CCCC(=O)NC1CCc2cc(OC)c(OC)c(OC)c2-c2ccc(OC)c(=O)cc21` (stereo unspecified), the GI50 with MOLT-4 is 0.000493 µM (active); in the test with UACC-62 it was 0.000303 µM (active); in the test with CCRF-CEM it was 0.00028 µM (active); in the test with DU-145, 0.00117 µM (active); with 786-0, 0.000652 µM (active); in the test on MDA-N, 0.000335 µM (active). Further, the GI50 is 0.000644 µM (active) with NCI-H460; 0.00807 µM (active) with A498; 0.000296 µM (active) with SF-539; 0.118 µM (active) in the test with NCI/ADR-RES; 0.01 µM (active) with RXF 393; 0.000235 µM (active) in the test on COLO 205. Besides, the GI50 is 0.00041 µM (active) with K562, 0.000577 µM (active) with EKVX, 0.000764 µM (active) in the test with Malme-3M and 0.114 µM (active) in the test with SR.
As to `O=c1[nH]c(=O)n(COCc2ccccc2)c2ccccc12`, the GI50 in the test with MOLT-4 is 44.4 µM (inactive); in the test with UACC-62 it was 75 µM (inactive); in the test on CCRF-CEM it was 56.9 µM (inactive); in the test on DU-145, > 100 µM (inactive); in the test with 786-0, > 100 µM (inactive); in the test with MDA-N, 83 µM (inactive). Also, the GI50 in the test with NCI-H460 is 40.9 µM (inactive); in the test with A498, > 100 µM (inactive); in the test on SF-539 it was 47.9 µM (inactive); with NCI/ADR-RES it was 20.5 µM (inactive); with RXF 393, 19.1 µM (inactive); in the test with CAKI-1, 62.7 µM (inactive). Moreover, the GI50 was 72.3 µM (inactive) in the test with COLO 205, 45.6 µM (inactive) with K562, 22.5 µM (inactive) in the test on EKVX and 37 µM (inactive) with SR.
Regarding `Cn1c(=O)c2c(nc(Nc3ccc(Cl)cc3)n3c(=O)n(-c4ccccc4)c(=O)n23)n(C)c1=O`, the GI50 in the test on MOLT-4, with UACC-62, with CCRF-CEM, in the test on DU-145, in the test on 786-0 and with MDA-N was > 100 µM (inactive) in each case. Further, the GI50 in the test with NCI-H460, with A498, with SF-539, with NCI/ADR-RES, with RXF 393 and in the test with CAKI-1 was > 100 µM (inactive) throughout. Also, the GI50 in the test with COLO 205, in the test with K562, with EKVX and with SR was > 100 µM (inactive) in each case.
Turning to `CCCSc1ccc2[nH]c(N3C(=O)/C(=C/c4ccccc4)N=C3c3ccccc3)cc2c1`, the GI50 was 16.3 µM (inactive) in the test with MOLT-4; 21.5 µM (inactive) with UACC-62; 18.4 µM (inactive) in the test on CCRF-CEM; 35.6 µM (inactive) with DU-145; 23.3 µM (inactive) in the test with 786-0; 10.2 µM (inactive) in the test with MDA-N. The GI50 was 27 µM (inactive) with A498; 18.1 µM (inactive) in the test on SF-539; 16.9 µM (inactive) with NCI/ADR-RES; 20 µM (inactive) with RXF 393; 27.2 µM (inactive) in the test on CAKI-1; 10.5 µM (inactive) in the test with COLO 205. Also, the GI50 in the test on K562 was 14.2 µM (inactive); in the test with EKVX it was 19.1 µM (inactive); in the test on Malme-3M, 24.2 µM (inactive); in the test with SR it was 10.5 µM (inactive).
With `CCOC(=O)/C(=C\c1cccc(C)c1)C(C)=O`, the GI50 was 10.2 µM (inactive) in the test with MOLT-4; 16.5 µM (inactive) with UACC-62; 16.7 µM (inactive) in the test on DU-145; 13.6 µM (inactive) in the test on 786-0; 12.7 µM (inactive) with MDA-N; 20.8 µM (inactive) with NCI-H460. Moreover, the GI50 with A498 is 13.4 µM (inactive); with SF-539, 16.7 µM (inactive); in the test on NCI/ADR-RES it was 19.6 µM (inactive); with RXF 393, 11.5 µM (inactive); in the test with CAKI-1, 20.9 µM (inactive); with COLO 205 it was 19.2 µM (inactive). For the same compound, the GI50 in the test on K562 was 28.4 µM (inactive); with EKVX, 48 µM (inactive); in the test with Malme-3M, 14.1 µM (inactive); in the test with SR, 3.44 µM (inactive).
With `CC(C)=CC1C(COC(=O)c2cc3c(cc2Cl)OCO3)C1(C)C` (stereo unspecified), the GI50 in the test on MOLT-4 is 16.1 µM (inactive); in the test with UACC-62, 36.1 µM (inactive); in the test with CCRF-CEM, 26.9 µM (inactive); in the test on DU-145, 28.4 µM (inactive); in the test on 786-0 it was 37.8 µM (inactive); in the test on MDA-N, 29.5 µM (inactive). Further, the GI50 with NCI-H460 is 33 µM (inactive); in the test on A498, 31.5 µM (inactive); with NCI/ADR-RES, 35.6 µM (inactive); with RXF 393, 20.8 µM (inactive); in the test with CAKI-1, 22.7 µM (inactive); in the test on K562 it was 34.4 µM (inactive). For the same compound, the GI50 in the test with EKVX was 30.4 µM (inactive); in the test with Malme-3M, 14.2 µM (inactive); in the test on SR, 21.3 µM (inactive).
For `COc1cc2c(cc1O)C(=O)O[C@@H]1CC=C3CCN(C)[C@H]3[C@H]21`, the GI50 in the test with MOLT-4, in the test on UACC-62, with CCRF-CEM, in the test with DU-145, in the test on 786-0 and in the test with MDA-N was > 25 µM (inactive) throughout. Besides, the GI50 with A498, in the test with NCI/ADR-RES, in the test on RXF 393, in the test on CAKI-1, with K562 and in the test with EKVX was > 25 µM (inactive) each time. The GI50 with Malme-3M and in the test on SR was > 25 µM (inactive) throughout.
Take `NNC(=O)c1cc([N+](=O)[O-])ccc1NC(=O)C12CC3CC(CC(C3)C1)C2`: the GI50 with MOLT-4 is 3.32 µM (inactive); with UACC-62, 10 µM (inactive); in the test on CCRF-CEM it was 2.27 µM (inactive); in the test with DU-145 it was 20 µM (inactive); with 786-0, 11.7 µM (inactive); with MDA-N it was 21 µM (inactive). For the same compound, the GI50 was 18.1 µM (inactive) in the test on NCI-H460; 13.5 µM (inactive) with SF-539; 15.9 µM (inactive) in the test on NCI/ADR-RES; 7.98 µM (inactive) in the test on RXF 393; 5.7 µM (inactive) with CAKI-1; 6.04 µM (inactive) in the test with COLO 205. Besides, the GI50 in the test with K562 is 7.48 µM (inactive); with EKVX, 7.05 µM (inactive); in the test on Malme-3M, 16.5 µM (inactive); in the test on SR, 3.43 µM (inactive).
